# According to patent US20200347043A1, “MODULATORS OF THE INTEGRATED STRESS PATHWAY” (Calico Life Sciences LLC, priority 2019, published 2020):
# Tested on: HEK293T cells carrying the ATF4 luciferase reporter
# Assay: ATF4-Luc assay (in vitro model of VWMD)
# Type: cell-based, human
# Settings: Homo sapiens, HEK-293T, 1 μg/mL tunicamycin, 7 hours, One Glo luminescence
# Summary of the method: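 Tunicamycin (1 μg/mL) stress with co-added compound for 7 hours in HEK293T cells stably carrying an ATF4 5′-UTR–luciferase reporter. EC50 values come from the luminescent signal (One Glo).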
row,SMILES,EC50
1,"O=C(NC12CC(n3cc(-c4ccc(OC(F)(F)F)cn4)cn3)(C1)C2)[C@H]1C[C@@H](O)c2cc(Cl)ccc2O1 [Compound 308, (2R,4R)-6-chloro-4-hydroxy-N-(3-{4-[5-(trifluoromethoxy)pyridin-2-yl]-1H-pyrazol-1-yl}bicyclo[1.1.1]pentan-1-yl)-3,4-dihydro-2H-1-benzopyran-2-carboxamide]",< 10 nM
2,"O=C(N[C@H]1CC[C@H](N2CCN(c3ccc(C(F)(F)F)nc3)C2=O)CC1)[C@@H]1C[C@@H](O)c2cc(Cl)ccc2O1 [Compound 309, (2S,4R)-6-chloro-4-hydroxy-N-[trans-4-{2-oxo-3-[6-(trifluoromethyl)pyridin-3-yl]imidazolidin-1-yl}cyclohexyl]-3,4-dihydro-2H-1-benzopyran-2-carboxamide]",> 2000 nM
3,O=C(N[C@H]1CC[C@H](N2CCN(c3ccc(C(F)(F)F)nc3)C2=O)CC1)[C@H]1C[C@@H](O)c2cc(Cl)ccc2O1 [Compound 310],50 to 250 nM
